Data on 6 compounds can be found in paper PMC6264418, “t-Bu2SiF-Derivatized D2-Receptor Ligands: The First SiFA-Containing Small Molecule Radiotracers for Target-Specific PET-Imaging” (Molecules, 2011).

Read-outs that look alike come from different tables or passages of the source.

For test [1], the target named is T1, human D2 receptor (Homo sapiens, UniProt P14416).
T1 construct: expressed in transfected cells
In words: [3H]spiperone binding assay, dopamine D2-receptor affinity (HEK293 cells stably expressing D2 receptors). Here is the method: Source of the dopamine-D2-receptors was cell line HEK293 which expresses the D2 receptors stably. […] All substances were evaluated in 3 independent competition experiments in six concentrations (each in triplicate). The Ki-values were calculated from the IC50-values according to Cheng-Prusoff as described in detail in [23].

For test [2], the target named is T1, human D2 receptor. Details: method as in PMID 12570798. Conditions: D2-receptor antagonists, literature affinity; cited from earlier work.
Setting [3] is: ratio of Ki values at the D2 receptor.

T1 sequence (P14416 whole entry): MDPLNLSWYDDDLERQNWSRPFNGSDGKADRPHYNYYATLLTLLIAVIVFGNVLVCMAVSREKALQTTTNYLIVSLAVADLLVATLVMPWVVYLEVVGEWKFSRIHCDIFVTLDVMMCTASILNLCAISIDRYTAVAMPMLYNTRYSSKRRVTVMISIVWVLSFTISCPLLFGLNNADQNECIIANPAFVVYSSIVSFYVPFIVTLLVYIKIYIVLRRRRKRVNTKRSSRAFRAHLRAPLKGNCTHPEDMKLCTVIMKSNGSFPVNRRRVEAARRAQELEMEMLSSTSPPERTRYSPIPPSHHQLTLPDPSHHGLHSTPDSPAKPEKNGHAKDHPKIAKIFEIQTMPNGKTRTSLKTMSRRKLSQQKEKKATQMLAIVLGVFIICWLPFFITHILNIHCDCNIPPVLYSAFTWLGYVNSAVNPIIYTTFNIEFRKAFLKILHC

In the case of `C=CCN1CCC[C@H]1CNC(=O)c1ccc([Si](F)(C(C)(C)C)C(C)(C)C)cc1` [SiFA-DDMFP, 4c, (S)-N-((1-Allylpyrrolidine-2-yl)methyl)-4-(di-tert-butylfluorosilyl) benzamide], at human D2 receptor [1], the affinity corresponds to a Ki of 62.7 ± 16.9 nM.
Take `C=CCN1CCC[C@H]1CNC(=O)c1cc(CCCF)cc(OC)c1OC` [Fallypride, fallypride, reference compound]: the Ki at human D2 receptor [1] (D2-receptor affinity, [3H]spiperone competition, 3 independent experiments, Ki from IC50 by Cheng-Prusoff, read-out: Ki (nM ± SEM)) was determined as 0.0965 ± 0.0153 nM. Besides, the D2-receptor affinity range result at human D2 receptor [2] is recorded as “picomolar”.
The compound `C=CCN1CCC[C@H]1CNC(=O)c1cc([Si](F)(C(C)(C)C)C(C)(C)C)ccc1OC` [SiFA-DMFP, 4a, (S)-N-((1-Allylpyrrolidine-2-yl)methyl)-5-(di-tert-butylfluorosilyl)-2-methoxybenzamide] showed a Ki on human D2 receptor [1] of 13.6 ± 4.3 nM. On human D2 receptor [1] (setting [3]), the “factor by which affinity is reduced compared to desmethoxyfallypride (2)” value was determined as 22 and the “factor by which affinity is reduced compared to raclopride” value is recorded as 11.
As for `C=CCN1CCCC1CNC(=O)c1cc(CCCS[C@H]2CC(=O)N(c3ccc([Si](F)(C(C)(C)C)C(C)(C)C)cc3)C2=O)cc(OC)c1OC` (stereo partly drawn) [SiFA-M-FP, 5, (S)-N-((1-Allylpyrrolidin-2-yl)methyl)-5-(3-(1-(4-(di-tert-butylfluorosilyl)phenyl)-2,5-dioxopyrrolidin-3-ylthio)propyl)-2,3-dimethoxybenzamide], the Ki at human D2 receptor [1] was found to be 4.21 ± 0.41 nM. Moreover, on human D2 receptor [1] (setting [3]), the “factor by which affinity is reduced compared to fallypride (1)” value came to 44 and the “factor by which affinity is reduced compared to raclopride” value was 3.5.
In turn, `C=CCN1CCC[C@H]1CNC(=O)c1cc([Si](F)(C(C)(C)C)C(C)(C)C)cc(OC)c1OC` [SiFA-FP, 4b, (S)-N-((1-Allylpyrrolidine-2-yl)methyl)-5-(di-tert-butylfluorosilyl)-2,3-dimethoxybenzamide] returned a Ki on human D2 receptor [1] of 33 ± 7.6 nM. Also, the “factor by which affinity is reduced compared to fallypride (1)” value on human D2 receptor [1] (setting [3]) worked out at 342.
For `CCN1CCC[C@H]1CNC(=O)c1c(O)c(Cl)cc(Cl)c1OC` [Raclopride, raclopride], the D2-receptor affinity range entry at human D2 receptor [2] is given as “nanomolar”.

The term Ki denotes a measure of affinity in units of concentration, obtained from inhibition or displacement.
